Assay results as given in patent US20240041042A1, “1-(PYRIDYL)-5-AZINYLPYRAZOLE DERIVATIVES, AND THEIR USE FOR CONTROL OF UNDESIRED PLANT GROWTH” (Bayer Aktiengesellschaft, priority 2020, published 2024).

Columns and labels:
Format in all cases: in vivo
[1] = system: Avena fatua (AVEFA); test: Pre-emergence herbicidal action against AVEFA; conditions: visual scoring after about 3 weeks vs untreated controls
In short: (§1)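 Pre-emergence soil-surface spray, WP/EC formulation, 0.5% additive, 600 l/ha water, rates of 320 g/ha or lower. Greenhouse, ~3 wk. Visual score, % of untreated control (100% = plants dead, 0% = like control).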

[2] = system: Alopecurus myosuroides (ALOMY); test: Pre-emergence herbicidal action against ALOMY; conditions: scored visually after about 3 weeks, 100% = plants have died
In short: as §1

[3] = system: Polygonum convolvulus (POLCO); test: Post-emergence herbicidal action against POLCO
In short: (§2)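 Values are percent visual activity (0% like control, 100% plants dead) after about 3 weeks in the greenhouse. Treatment: post-emergence spray at one-leaf stage, 600 l/ha spray volume, 0.5% additive, doses 320 g/ha or lower.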

[4] = system: Polygonum convolvulus (POLCO); test: Pre-emergence herbicidal action against POLCO
In short: as §1

[5] = system: Lolium rigidum (LOLRI); test: Post-emergence herbicidal action against LOLRI
In short: as §2

[6] = system: Verconica persica (VERPE); test: Pre-emergence herbicidal action against VERPE
In short: as §1

[7] = system: Avena fatua (AVEFA); test: Post-emergence herbicidal action against AVEFA; conditions: visual rating about 3 weeks after treatment
In short: as §2

[8] = system: Viola tricolor (VIOTR); test: Pre-emergence herbicidal action against VIOTR
In short: as §1

[9] = system: Setaria viridis (SETVI); test: Post-emergence herbicidal action against SETVI
In short: as §2

[10] = system: Matricaria inodora (MATIN); test: Post-emergence herbicidal action against MATIN
In short: as §2

Row | Compound | Pre-emergence action against AVEFA in % ([1]; 320 g/ha) [%] | Pre-emergence action against ALOMY ([2]; 80 g/ha) [%] | Pre-emergence action against ALOMY ([2]; 320 g/ha) [%] | Post-emergence action against POLCO in % ([3]; dosage 320 g/ha) [%] | Pre-emergence action against POLCO in % ([4]; dosage 80 g/ha) [%] | Pre-emergence action against POLCO in % ([4]; dosage 320 g/ha) [%] | Post-emergence action against LOLRI in % ([5]; dosage 80 g/ha) [%] | Post-emergence action against LOLRI in % ([5]; dosage 320 g/ha) [%] | Pre-emergence action against VERPE in % ([6]; dosage 80 g/ha) [%] | Pre-emergence action against VERPE in % ([6]; dosage 320 g/ha) [%] | Post-emergence action against AVEFA in % ([7]; 80 g/ha) [%] | Post-emergence action against AVEFA in % ([7]; 320 g/ha) [%] | Pre-emergence action against VIOTR in % ([8]; 320 g/ha, Viola tricolor) [%] | Pre-emergence action against VIOTR in % ([8]; dosage 80 g/ha) [%] | Post-emergence action against POLCO in % ([3]; dosage 80 g/ha) [%] | Post-emergence action against SETVI in % ([9]; dosage 320 g/ha) [%] | Pre-emergence action against AVEFA in % ([1]; 80 g/ha) [%] | Post-emergence action against SETVI in % ([9]; dosage 80 g/ha) [%] | Post-emergence action against MATIN in % ([10]; dosage 80 g/ha) [%] | Post-emergence action against MATIN in % ([10]; dosage 320 g/ha) [%]
1 | CCOC(=O)COc1nn(-c2ncccc2F)c(-c2cncc(F)c2)c1C1CC1 [Example I-174] | 90 | 90 | 100 | 80 | 90 | 100 | 80 | 80 | 100 | 100 | 80 | 90 | 100 | 100 | – | – | – | – | – | –
2 | O=C(O)COc1nn(-c2ncccc2F)c(-c2cncc(F)c2)c1C1CC1 [Example I-175] | 90 | 100 | 100 | 80 | 90 | 90 | 80 | 80 | 100 | 100 | 80 | 80 | 100 | 100 | 80 | 80 | – | – | – | –
3 | COC(=O)COc1nn(-c2ncccc2F)c(-c2cncc(F)c2)c1C1CC1 [Example I-167] | 90 | 90 | 100 | 80 | 90 | 90 | 80 | 80 | 100 | 100 | 80 | 90 | 100 | 100 | 80 | 80 | 90 | – | – | –
4 | C[C@@H](Oc1nn(-c2ncccc2F)c(-c2ccc(F)nc2)c1Br)C(=O)O [Example I-10] | 100 | 100 | 100 | 80 | 100 | 100 | 90 | 90 | 80 | 100 | 80 | 90 | 100 | 100 | 80 | 80 | – | 80 | – | –
5 | O=C(O)COc1nn(-c2nc(F)ccc2F)c(-c2cncc(F)c2)c1C1CC1 [Example I-148] | 90 | 100 | 100 | – | 80 | 90 | 80 | 80 | 90 | 100 | – | 80 | 100 | 100 | – | 80 | 80 | 80 | 80 | 80
6 | O=C(O)COc1nn(-c2ncccc2F)c(-c2ccc(F)nc2)c1Br [Example I-17] | 100 | 100 | 100 | – | 90 | 100 | – | 80 | – | 100 | – | 80 | 100 | 100 | – | 80 | 80 | 80 | – | –
7 | COC(=O)C(C)COC(=O)C(C)Oc1nn(-c2ccccn2)c(-c2ccc(F)nc2)c1Cl (stereo not shown) [Example I-291] | 90 | 100 | 100 | 80 | 80 | 90 | 80 | 80 | – | 80 | 80 | 80 | 100 | 90 | 80 | 80 | 80 | 80 | – | –
8 | COC(=O)COc1nn(-c2nc(F)ccc2F)c(-c2cncc(F)c2)c1C1CC1 [Example I-164] | 90 | 100 | 100 | – | – | 100 | 80 | 90 | 90 | 100 | 80 | 80 | 100 | 100 | – | 80 | 90 | 80 | – | 80
9 | COC(=O)C(C)NC(=O)[C@@H](C)Oc1nn(-c2ccccn2)c(-c2cncc(F)c2)c1Cl (stereo partly shown) [Example I-199] | 90 | 90 | 90 | – | 80 | 90 | 90 | 90 | 90 | 100 | – | 80 | 100 | 100 | – | 90 | 80 | 80 | – | 80
10 | COC(=O)COc1nn(-c2ncccc2F)c(-c2cncc(F)c2)c1Br [Example I-16] | 90 | 100 | 100 | – | 90 | 90 | – | – | – | 90 | – | – | 100 | 100 | – | 80 | – | 80 | – | 80
